Patent US20240358678A1, “METHODS AND COMPOSITIONS FOR ENHANCING CHEMOTHERAPEUTIC DRUG UPTAKE INTO BRAIN TUMORS” (Brown University, priority 2023, published 2024)
Entries after “also recorded” stand apart in the source; their conditions may differ.

Key:
HCMEC/D3 cells [1] = experiment: Trans-endothelial electrical resistance (TEER) of HCMEC/D3 monolayers; format: cell-based, human
Protocol: (§1) Trans-endothelial electrical resistance: HCMEC/D3 or HBMEC cells were plated in 8W10E+ PET 8-well arrays (Applied Biophysics) at a density of 100,000 cells/well in 500 μl. These arrays were placed in a pre-stabilized ECIS Z-Theta instrument (Applied Biophysics). Using the ECIS Z-Theta software (Applied Biophysics), measurements were set to 4000 and 64000 Hz every 30 minutes. […] Cells would then be treated with BIA and left to grow up to 5 days, with frequent drug-containing media re-addition for maintenance of the culture. Resistance (W) and capacitance (nF) were recorded and plotted.

HCMEC/D3 cells [2] = experiment: Real-time PCR for CDH5 in HCMEC/D3 cells; format: cell-based, human; conditions: 1 μM BIA, up to 48 hours
Protocol: Real-time PCR: Total RNA from GBM and HCMEC/D3 cells was obtained and processed as indicated above. For cDNA generation, we used 1 μg of RNA and processed with the iScript™ cDNA synthesis kit (BioRad), following the protocol indicated by the provider. All primers were designed using NCBI Primer-Blast tool. Detailed information on primer sequences can be found in FIG. 25 (Supplementary Table 3). Gene expression levels were quantified using PowerUp SYBR Green Master Mix (Applied Biosciences) on QuantStudio 6 Pro System (Applied Biosciences), normalized by housekeeping gene GAPDH expression and represented as relative expression using comparative ΔΔCT method.

[3] = test system: patient-derived GBM neuro-spheres; experiment: GBM neuro-sphere cell viability assay (Cell-Titer Glo 3D), BIA and cisplatin; format: cell-based, human; conditions: BIA 1 μM, 5 days
Protocol: Cell viability assay: Cells were plated at a density of 1500 cells/well in black-well clear bottom 96-well plates and left growing in culture conditions overnight. Next day, cells were treated with titrating doses of the indicated compounds. For BIA only cytotoxicity studies, cells were incubated with BIA for 96 hours. For BIA and cisplatin combinatorial studies, cells were incubated with BIA and cisplatin, and corresponding controls, for 5 days. Next, we used the Cell-Titer Glo 3D (Promega) following provider's guidelines and quantified for luminescence signal using a Molecular Devices SpectraMax M2 plate reader. Conditions were repeated in triplicates.

G9 tumors = experiment: Platinum uptake by ICP-MS in G9 tumor-bearing mice (Example 2); format: in vivo; conditions: BiA 20 mg/kg tail vein, cisplatin 5 mg/kg 24 hours later
Protocol: Inductively Coupled Plasma-Mass Spectrometry (ICP-MS): For platinum quantitation, ICP-MS was performed in an Agilent 7900 ICP mass spectrometer and controlled using the ICP-MS MassHunter software. Machine calibration was performed using a tuning solution (Agilent), containing 1 ng/mL (1 ppb) of Li, Co, Y, Ce and Ti trace-metals. In each experiment, the desired internal standard was added to each sample and standard solution. Standard curves were prepared with potassium tetrachloroplatinate (II) (Thermo Fisher) by generating dilutions of 0.1, 1, 10, 50, 100 and 1000 parts per billion (ppb). Isotopes selected for platinum detection were Pt^195. Performance reports were registered daily for calibration and accuracy records.
For the assessment of the effects of indirubin on intratumoral accumulation of platinum, G9 tumors were implanted intracranially according to the protocols described above. Cisplatin (5 mg/kg) was injected via the tail vein 24 hours post-BIA injection (20 mg/kg vial tail vein), and accumulation measured after a further 5 hours.

HCMEC/D3 cells [4] = experiment: Human phospho-kinase array of HCMEC/D3 cells; format: cell-based
Protocol: Phospho-kinase array: HCMEC/D3 cells were plated at a density of 1 million cells and treated with either 1 μM BIA or vehicle DMSO for 24 hr. Cell lysates were collected with manufacturer provided Lysis Buffer 6 supplemented with 10 μg/mL Aprotinin (Tocris), 10 μg/mL Leupeptin hemisulfate (Tocris) and 10 μg/mL Pepstatin A (Tocris) for protein preservation. 50 μg of lysate from each sample were loaded into each membrane. All experiment procedures were performed using the Proteome Profiler Human Phospho-Kinase Array Kit (R&D Systems) following manufacturer's protocol.

G30 tumors = experiment: DCE-MRI analysis of blood flow within a murine glioblastoma (k-trans); format: in vivo, mouse; conditions: 24 hours after BiA 10 mg/kg IP vs pretreatment
Protocol: Magnetic Resonance Imaging (MRI): MRI was performed at the BWH Imaging Core on a 7T Bruker MRI apparatus. G30 tumors were implanted (50,000 cells per mouse) intracranially into the striatum using a stereotactic frame. After three weeks of tumor growth, MRI images were collected according to BWH Imaging Core protocols using Gadolinium contrast enhancement. After the first image was collected, BiA was administered IP at 10 mg/kg), and imaging were performed again.
The present study investigated whether the indirubin derivative, BiA (see FIG. 1A and FIG. 1B), can disrupt the permeability of the BTB. Blood flow within a murine glioblastoma was assessed using dynamic contrast-enhanced magnetic resonance imaging (DCE-MRI) analysis and as measured by k^trans.
K^trans is calculated by measuring the accumulation of gadolinium-based contrast agent in the extravascular-extracellular space. Interpretation of k^trans varied according to permeability and blood flow. In situations where permeability is very low (near-intact blood brain barrier), then k^trans is a useful measure of permeability, whereas in situations where permeability is very high (disrupted blood brain barrier), then k^trans will reflect perfusion.

HBMEC cells = experiment: Trans-endothelial electrical resistance (TEER) of HBMEC monolayers; format: cell-based, human
Protocol: as §1

HCMEC/D3 cells [5] = experiment: Western blot of HCMEC/D3 cells; format: cell-based, human
Protocol: Western blot: HCMEC/D3 and GBM cell lysates were collected in RIPA Buffer (Thermo Fisher Scientific) supplemented with 1× protease/phosphatase inhibitor cocktail (Cell Signaling). Lysate collection from murine tumor tissue samples (˜30 mg) was performed under homogenization using 23G and 26G needles. Total protein concentration was measured using Pierce 660 nm Protein Assay Reagent (Thermo Fisher Scientific) at 660 nm absorbance in Molecular Devices SpectraMax M2 plate reader. Samples were incubated in 1× Laemmli sample buffer (BioRad) at 95 degrees Celsius for 5 minutes before loading onto 10% Mini-PROTEAN TGX precast protein gel (BioRad). PageRuler Plus Pre-stained Protein Ladder (Thermo Fisher Scientific) was used as ladder. Appropriate secondary antibodies, Goat anti-mouse-HRP (Sigma) or Goat anti-rabbit-HRP (Sigma) in 5% milk in 1×TBST with 1:5000 dilution.

HCMEC/D3 cells [6] = experiment: Flow cytometry of late apoptosis by Sytox Blue staining; format: cell-based, human; conditions: any of the used BIA doses, 72 hours, vs cisplatin control
Protocol: For apoptosis assessment, […]3 cells were treated as indicated above for 72 hours with BIA at indicated doses. Cells were collected from the 6-well plates and washed three times with PBS. Then, incubated with SYTOXTM Blue nucleic acid stain (5 mM) with a dilution of 1:1000 for 15 minutes. Cells were submitted and analyzed in the CytoFLEX system and its software as indicated above.

CC(=O)ON=C1C(=C2C(=O)Nc3cc(Br)ccc32)Nc2ccccc21 [BIA, 6-bromoindirubin acetoxime]
barrier establishment (TEER), BIA added 24 hours after plating (HCMEC/D3 cells [1]): prevented barrier establishment | barrier formation (TEER), BIA added to confluent monolayers (HCMEC/D3 cells [1]; BIA added at monolayer confluence (~110 hrs)): marked decreased of barrier formation | CDH5 expression at the transcriptional level (HCMEC/D3 cells [2]): decreased expression | cell viability, BIA single-treatment [3]: reduced the cell viability of cells mildly | in vivo uptake of platinum in healthy mouse brain (G9 tumors): not in healthy mouse brain | in vivo uptake of platinum in tumor tissue (G9 tumors; measured after 5 hours): significantly increases the in vivo uptake of platinum | activity of endothelial nitric oxide synthase (eNOS) and the p38a/CREB axis (HCMEC/D3 cells [4]): decreased activity | phosphorylation of MAPK family (p38a, JNK1, MSK1/2, ERK1/2), SRC family (SRC, YES, FGR) and transcription factors (CREB, STAT1, STAT2, STAT5a/b, c-JUN) (HCMEC/D3 cells [4]; 1 μM BIA, 24 hours): decrease of activating phosphorylation | phosphorylation of STAT3 and p70 S6 kinase (HCMEC/D3 cells [4]; 1 μM BIA, 24 hours): phosphorylation of STAT3 at S727 and Y705 | k-trans values in murine glioblastoma (G30 tumors): significantly increased; also recorded: increased perfusion | barrier establishment (TEER), BIA added 24 hours after plating (HBMEC cells): prevented barrier establishment | time of maximum reduction of CDH5 protein levels post-BIA addition (HCMEC/D3 cells [5]; 1 μM BIA, remained for 2 days): 12 h | protein levels of CAV1 or MFSD2A (HCMEC/D3 cells [5]; BIA 1 μM, 48 hours): did not show any changes of protein levels | late apoptosis/necrosis (HCMEC/D3 cells [6]): did not show late apoptosis/necrosis
